The values that follow come from patent publication US20110028447A1, “INDAZOLE DERIVATIVES” (Pfizer Inc., priority 2008, published 2011).

SMILES strings stand for the structures. Some results are limits rather than exact numbers.

The first experiment deals with human CB1 receptor (Homo sapiens, UniProt P21554). The experiment in a line: Human CB1 receptor binding, [3H] CP-55,940 displacement on HEK cell membranes. As to conditions: CB1 Ki. Set-up: expressed in transfected cells; host or cells: HEK cells, doxycycline-induced; membrane preparation. As for the experimental part: The Human CB1 receptor binding affinity and other biological activities of the compounds of this invention are determined by the following procedures. Membrane preparation: Human Embryonic Kidney (HEK) Cells expressing the human CB1 receptor under transcriptional regulation of a tetracycline inducible promoter were grown in Dulbecco's Modified Essential Medium with sodium pyruvate (Invitrogen, Carlsbad, Calif.) containing 10% tetracycline free fetal bovine serum (Clonetech, Mountain View, Calif.) 100 μg/ml hygromycin (Calbiochem, San Diego, Calif.), 5 μg/ml blasticidin (Invitrogen). CB1 receptor expression was induced by addition of 1 μg/ml doxycycline (Calbiochem) and incubation for an additional 24 hours. Cells were released from flasks using Cell Dissociation Buffer (Invitrogen). Cells were pelleted by centrifugation at 500×G for 5 minutes. Membranes were prepared by resuspending cells in ice cold TEE Buffer (25 mM Tris pH 7.4, 5 mM EDTA, 5 mM EGTA, Complete Protease Inhibitor (Roche, Basel, Switzerland)). Cells were lysed with 12 strokes of a dounce homogenizer. Unlysed cells were pelleted by centrifugation at 500×G for 5 minutes. Membranes were pelleted by centrifugation at 25,000×G for 30 minutes. Membranes were resuspended in TEE, dounced 12 strokes, and pelleted a second time at 25,000×G for 30 minutes. Membrane pellet was resuspended in 50 mM Tris pH 7.4, 100 mM NaCl, 3 mM MgCl2, 0.2 mM EGTA, Complete Protease Inhibitor (Roche). Protein concentration was determined using the Micro-BCA Protein Assay Kit (Pierce, Rockford, Ill.) using BSA as a standard. Membranes were quick frozen and stored at −80 degrees Celsius until use.
Chain of human CB1 receptor (P21554 whole entry): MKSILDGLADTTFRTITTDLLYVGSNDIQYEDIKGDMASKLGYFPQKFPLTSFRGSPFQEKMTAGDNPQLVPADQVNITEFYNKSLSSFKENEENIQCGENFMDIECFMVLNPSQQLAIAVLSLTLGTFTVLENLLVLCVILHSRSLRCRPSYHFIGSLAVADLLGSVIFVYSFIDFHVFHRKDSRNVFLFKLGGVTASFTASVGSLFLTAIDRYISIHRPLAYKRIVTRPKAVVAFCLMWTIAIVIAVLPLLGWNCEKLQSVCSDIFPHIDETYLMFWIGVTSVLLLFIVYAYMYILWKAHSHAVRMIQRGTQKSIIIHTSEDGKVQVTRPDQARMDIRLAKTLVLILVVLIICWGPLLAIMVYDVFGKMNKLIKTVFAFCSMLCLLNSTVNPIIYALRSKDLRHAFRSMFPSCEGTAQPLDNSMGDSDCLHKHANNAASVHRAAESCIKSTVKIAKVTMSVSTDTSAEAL
Binding experiments: 50 μl of test compound was incubated with 50 μl of [^3H] CP-55,940 (Perkin Elmer, Boston, Mass.) (final concentration=[…]) and 150 μl of membrane homogenate (1 μg/well) in polypropylene 96-well plates (Corning, Acton, Mass.). Final reaction conditions were 50 mM Tris pH 7.4, 100 mM NaCl, 3 mM MgCl2, 0.2 mM EGTA, 0.04% BSA. Nonspecific binding was determined by incubation with 50 μM WIN-55, 212-2 (Tocris, Ellisville, Mo.). After incubation at room temperature for 60 minutes reactions were harvested by vacuum filtration through Unifilter GF/B-96 filters (Perkin Elmer) that had been presoaked in assay buffer containing 0.5% BSA (Sigma, St. Louis, Mo.) using a FilterMate Plate Harvester (Perkin Elmer). Filters were rinsed 4 times with 50 mM Tris pH 7.4, 0.025% Tween-20 and dried at 50 degrees Celsius for at least 30 minutes. 40 μl of Microscint-20 (Perkin Elmer) was added per well, and plates were counted using a Top-Count Microplate Scintillation Counter (Perkin Elmer). Binding data were analyzed and EC50 and K, values calculated using Graph Pad Prism 4.0 Software.
In turn, `CC(C)(C)[C@H](NC(=O)c1nn(Cc2ccc(C#N)cc2F)c2c(F)cccc12)C(=O)NC[C@@H](O)CO` [Example 366] displayed a Ki of 241 nM. `CC(C)(C)[C@H](NC(=O)c1nn(Cc2ccc(C#N)cc2F)c2c(F)cccc12)C(=O)NC[C@H](O)CO` [Example 367] had a Ki of 41.4 nM. The compound `CC(C)(C)[C@H](NC(=O)c1nn(Cc2ccc(C#N)cc2F)c2c(F)cccc12)C(=O)NCC(N)=O` [Example 369] showed a Ki of 28.1 nM.

For the compound `CC(C)(C)[C@H](NC(=O)c1nn(Cc2ccc(C#N)cc2F)c2c(F)cccc12)C(=O)NCCS(C)(=O)=O` [Example 370], the Ki amounted to 132 nM. In turn, `CC(C)(C)[C@H](NC(=O)c1nn(Cc2ccc(C#N)cc2F)c2c(F)cccc12)C(=O)NCCS(N)(=O)=O` [Example 371] returned a Ki of 54.8 nM. `Cc1nnc(CNC(=O)[C@@H](NC(=O)c2nn(Cc3ccc(C#N)cc3F)c3c(F)cccc23)C(C)(C)C)o1` [Example 372] registered a Ki of 22.6 nM.

Consider `CC(C)(C)[C@@H](NC(=O)c1nn(Cc2ccc(C#N)cc2)c2ccccc12)C(N)=O` [Example 383], for which the Ki was more than 400 nM.

Regarding `CC(C)(C)[C@H](NC(=O)c1nn(Cc2ccc(C#N)cc2)c2ccccc12)C(=O)NC[C@H](O)CO` [Example 384], the affinity, expressed as Ki, was 286 nM. Consider `COc1cc(C#N)ccc1Cn1nc(C(=O)N[C@H](C(N)=O)C(C)(C)C)c2ccccc21` [Example 385], for which the Ki was 166 nM. `COc1cc(C#N)ccc1Cn1nc(C(=O)N[C@H](C(=O)NCCO)C(C)(C)C)c2ccccc21` [Example 386]: the Ki was found to be 209 nM. In turn, `COc1cc(C#N)ccc1Cn1nc(C(=O)N[C@H](C(=O)NC[C@H](O)CO)C(C)(C)C)c2ccccc21` [Example 387] returned a Ki of more than 400 nM. As to `COc1cc(C#N)ccc1Cn1nc(C(=O)N[C@H](C(=O)NCC(N)=O)C(C)(C)C)c2ccccc21` [Example 388], the Ki was more than 400 nM.

In the case of `COc1cc(C#N)ccc1Cn1nc(C(=O)N[C@H](C(=O)NC[C@@H](O)CO)C(C)(C)C)c2ccccc21` [Example 389], the Ki was more than 400 nM. In the case of `COc1cc(C#N)ccc1Cn1nc(C(=O)N[C@H](C(=O)NCCS(N)(=O)=O)C(C)(C)C)c2ccccc21` [Example 390], the Ki is more than 400 nM.

`COc1cc(C#N)ccc1Cn1nc(C(=O)N[C@H](C(=O)NC(CO)CO)C(C)(C)C)c2ccccc21` [Example 391] displayed a Ki of more than 400 nM. `COc1cc(C#N)ccc1Cn1nc(C(=O)N[C@H](C(=O)NCCS(C)(=O)=O)C(C)(C)C)c2ccccc21` [Example 392] had a Ki of more than 400 nM.

`COc1cc(C#N)ccc1Cn1nc(C(=O)N[C@H](C(=O)NC2CC2)C(C)(C)C)c2ccccc21` [Example 393] yielded a Ki of more than 400 nM.

The compound `COc1cc(C#N)ccc1Cn1nc(C(=O)N[C@@H](C(N)=O)C(C)(C)C)c2ccccc21` [Example 394] returned a Ki of more than 400 nM. Consider `CC(C)(C)[C@H](NC(=O)c1nn(Cc2ccc(C#N)cc2)c2ccccc12)C(=O)N[C@H]1C[C@@H](C(N)=O)C1` [Example 396], for which the affinity corresponds to a Ki of 239 nM. In turn, `CC(C)(C)[C@H](NC(=O)c1nn(Cc2ccc(C#N)cc2F)c2ccccc12)C(=O)N[C@H]1C[C@@H](C(N)=O)C1` [Example 397] came in with a Ki of 243 nM. Same read-out and setting: for `COc1cc(C#N)ccc1Cn1nc(C(=O)N[C@H](C(=O)N[C@H]2C[C@@H](C(N)=O)C2)C(C)(C)C)c2ccccc21` [Example 399] the value was more than 400 nM; for `CC(C)(C)[C@H](NC(=O)c1nn(Cc2ccc(C#N)cc2)c2ccccc12)C(=O)NCC1CCC(=O)N1` (stereo partly drawn) [Example 401], more than 400 nM; for `CC(C)(C)[C@H](NC(=O)c1nn(Cc2ccc(C#N)cc2)c2c(F)cccc12)C(=O)NCC1CCC(=O)N1` (stereo partly drawn) [Example 402], 277 nM. The compound `CC(C)(C)[C@H](NC(=O)c1nn(Cc2ccc(C#N)cc2)c2cc(F)ccc12)C(=O)NCC1CCC(=O)N1` (stereo partly drawn) [Example 403] had a Ki of more than 400 nM. On to `CC(C)NC(=O)[C@@H](NC(=O)c1nn(Cc2ccc(C#N)cc2)c2ccccc12)C(C)(C)C` [Example 405], for which the affinity, expressed as Ki, was 48.1 nM. For the compound `CC(C)(C)[C@H](NC(=O)c1nn(Cc2ccc(C#N)cc2)c2ccccc12)C(=O)NC1CCC1` [Example 406], the Ki was determined as 89.7 nM.

In the case of `CC(C)(C)[C@H](NC(=O)c1nn(Cc2ccc(C#N)cc2)c2ccccc12)C(=O)NCC1CC1` [Example 407], the affinity, expressed as Ki, was 36.2 nM. As to `CC(C)(C)[C@H](NC(=O)c1nn(Cc2ccc(C#N)cc2)c2ccccc12)C(=O)NO` [Example 412], the Ki was more than 400 nM. Compound `CC(C)(C)[C@H](NC(=O)c1nn(Cc2ccc(F)cc2)c2ccc(Cl)cc12)C(=O)NCCO` [Example 428] yielded a Ki of 0.89 nM. Turning to `CC(C)(C)[C@H](NC(=O)c1nn(Cc2ccc(F)cc2)c2ccc(Cl)cc12)C(N)=O` [Example 429], the affinity, expressed as Ki, was 0.44 nM. Compound `CC(C)(C)[C@H](NC(=O)c1nn(Cc2ccc(F)cc2)c2ccc(Cl)cc12)C(=O)NCC(N)=O` [Example 430] had a Ki of 18.2 nM. In the case of `CC(C)(C)[C@H](NC(=O)c1nn(Cc2ccc(F)cc2)c2ccc(Cl)cc12)C(=O)NC[C@H](O)CO` [Example 431], the Ki amounted to 13.6 nM.

As for `CC(C)(C)[C@H](NC(=O)c1nn(Cc2ccc(F)cc2)c2ccc(Cl)cc12)C(=O)NCCS(C)(=O)=O` [Example 433], the Ki amounted to 35.5 nM. Consider `CC(C)(C)[C@H](NC(=O)c1nn(Cc2ccc(F)cc2)c2ccc(Cl)cc12)C(=O)NC[C@@H](O)CO` [Example 434], for which the Ki amounted to 55.1 nM. For `CC(C)(C)[C@H](NC(=O)c1nn(Cc2ccc(F)cc2)c2ccc(Cl)cc12)C(=O)NC(CO)CO` [Example 435], the affinity corresponds to a Ki of 6.5 nM.

The compound `CC(C)(C)[C@H](NC(=O)c1nn(Cc2ccc(F)cc2)c2ccc(Cl)cc12)C(=O)NC1CC1` [Example 436] returned a Ki of 1.13 nM. `CC(C)NC(=O)[C@@H](NC(=O)c1nn(Cc2ccc(F)cc2)c2ccc(Cl)cc12)C(C)(C)C` [Example 437] showed a Ki of 2.79 nM. Same read-out and setting: for `CC(C)(C)[C@H](NC(=O)c1nn(Cc2ccc(F)cc2)c2ccc(Cl)cc12)C(=O)NCC1CC1` [Example 439] the value was 3.26 nM; for `CC(C)(C)[C@H](NC(=O)c1nn(Cc2ccc(C#N)cc2)c2ccc(Cl)cc12)C(N)=O` [Example 440], 104 nM; for `CC(C)(C)[C@H](NC(=O)c1nn(Cc2ccc(C#N)cc2)c2ccc(Cl)cc12)C(=O)NC[C@H](O)CO` [Example 441], more than 400 nM. Take `CC(C)(C)[C@H](NC(=O)c1nn(Cc2ccc(C#N)cc2)c2ccc(Cl)cc12)C(=O)NCCS(C)(=O)=O` [Example 442]: the Ki is more than 400 nM.

The experiment is the same for the next values; noted with them: read-out: CB1 Ki.
On to `CC(C)(C)[C@H](NC(=O)c1nn(Cc2ccc(F)cc2)c2ccccc12)C(=O)NCC(=O)NC(CO)CO` [Example 377], for which the Ki turned out to be 22.5 nM. On the same count and under the same terms, next, `CC(C)(C)[C@H](NC(=O)c1nn(Cc2ccc(F)cc2)c2ccccc12)C(=O)NCC(=O)N1C[C@@H](O)[C@H](O)C1` [Example 378]: 158 nM; `CC(C)(C)[C@H](NC(=O)c1nn(Cc2ccc(F)cc2)c2ccccc12)C(=O)NCC(=O)N(CCO)CCO` [Example 379]: more than 400 nM.

Turning to `CCOC(=O)[C@H]1C[C@@H](NC(=O)[C@@H](NC(=O)c2nn(Cc3ccc(C#N)cc3)c3ccccc23)C(C)(C)C)C1` [Example 380], the Ki is more than 400 nM.

For the compound `CCOC(=O)[C@H]1C[C@@H](NC(=O)[C@@H](NC(=O)c2nn(Cc3ccc(C#N)cc3F)c3ccccc23)C(C)(C)C)C1` [Example 382], the Ki came out at 238 nM. For `CN1CC(CNC(=O)[C@@H](NC(=O)c2nn(Cc3ccc(C#N)cc3)c3ccccc23)C(C)(C)C)CC1=O` (stereo partly drawn) [Example 408], the Ki is more than 400 nM. Turning to `CN1CC(CNC(=O)[C@@H](NC(=O)c2nn(Cc3ccc(C#N)cc3)c3c(F)cccc23)C(C)(C)C)CC1=O` (stereo partly drawn) [Example 409], the Ki was found to be 73 nM.

For `CN1CC(CNC(=O)[C@@H](NC(=O)c2nn(Cc3ccc(C#N)cc3)c3cc(F)ccc23)C(C)(C)C)CC1=O` (stereo partly drawn) [Example 410], the Ki came to 104 nM. On the same count and under the same terms, for `CC(C)(C)[C@H](NC(=O)c1nn(Cc2ccc(F)cc2)c2ccccc12)C(=O)NCc1nnc2n1CCC2` [Example 419] the value was 110 nM; for `CC(C)(C)[C@H](NC(=O)c1nn(Cc2ccc(F)cc2)c2c(Cl)cccc12)C(=O)NCc1ccc(C(=O)O)cc1` [Example 426], 90 nM.

Broadly, the Ki is the equilibrium dissociation constant of an inhibitor or competing ligand from its target.
